Reference: patent publication US7538111B2, “Benzenesulphonamide derivatives, method for production and use thereof for treatment of pain” (Laboratoires Fournier S.A., priority 2003, dated 2009)
Structures can show the parent of a compound that is named as a salt.

System: formalin-induced pain response (paw licking)
Assay: formalin-induced pain response test in mice
Type: in vivo
Conditions: oral route, dose 1 mg/kg, 2nd phase 15 to 30 min after formalin injection
Method: The compounds of the present invention were evaluated for their analgesic property using the formalin-induced pain response test in mice (Shibata, M., Ohkubo, T., Takahashi, H. & R. Inoki. Modified formalin test: characteristic biphasic pain response. Pain, 38, 347-352). To summarize, formalin (0.92% in physiological saline) is injected into the hind paw and the period of paw licking, which represents pain intensity, is recorded from 0 to 5 min (1st phase) and from 15 to 30 min (2nd phase) after the injection.

| Structure (SMILES) | percentage inhibition of the second paw licking phase induced by formalin [%] |
| --- | --- |
| COc1cc(C)c(S(=O)(=O)N(C)CCOCC(=O)N2CCN([C@@H]3CN4CCC3CC4)CC2)c(C)c1 [Example 6, N-[2-[2-[4-[(3S)-1-azabicyclo[2.2.2]oct-3-yl]-1-piperazinyl]-2-oxo-ethoxy]ethyl]-4-methoxy-N,2,6-trimethylbenzenesulphonamide, fumarate] | 40 |

Same assay, conditions: oral route, dose 3 mg/kg, 2nd phase 15 to 30 min after formalin injection

| Structure (SMILES) | percentage inhibition of the second paw licking phase induced by formalin [%] |
| --- | --- |
| COc1cc(C)c(S(=O)(=O)N(C)CCOCC(=O)N2CCN(C3CN4CCC3CC4)CC2)c(C)c1 (racemic) [Example 4, N-[2-[2-[4-[(3RS)-1-azabicyclo[2.2.2]oct-3-yl]-1-piperazinyl]-2-oxo-ethoxy]ethyl]-4-methoxy-N,2,6-trimethylbenzenesulphonamide, difumarate] | 43 |

Molecular target: T1, B1 receptor of bradykinin (Homo sapiens, UniProt P46663)
T1 construct: To induce expression of the B1 receptor of bradykinin, the vein segments are allowed to incubate at 37° C; from tissue; host or cells: human umbilical vein rings, endothelium removed, incubated 16 h in EMEM to induce the receptor
T1 sequence (P46663 1-353): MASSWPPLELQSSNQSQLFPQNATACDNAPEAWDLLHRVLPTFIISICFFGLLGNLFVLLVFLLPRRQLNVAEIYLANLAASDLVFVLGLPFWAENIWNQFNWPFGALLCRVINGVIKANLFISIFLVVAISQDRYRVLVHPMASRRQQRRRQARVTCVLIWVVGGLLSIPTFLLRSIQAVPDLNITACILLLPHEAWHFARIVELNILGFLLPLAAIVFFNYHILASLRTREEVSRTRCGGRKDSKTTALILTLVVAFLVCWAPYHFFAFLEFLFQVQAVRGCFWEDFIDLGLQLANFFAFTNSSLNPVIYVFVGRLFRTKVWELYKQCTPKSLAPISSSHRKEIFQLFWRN
Assay: human umbilical vein contraction by des-Arg10-Kallidin, antagonism at the B1 receptor of bradykinin
Type: cell-based
Conditions: isolated human umbilical vein rings, agonist des-Arg10-Kallidin, pKB=-log KB from EC50 concentration ratio
Method: This test uses the human umbilical vein and is conducted as per the following protocol:
The cord is dissected in Krebs solution to release the umbilical vein. The vein is cleansed of all adhering tissue and cut into small rings 3-4 mm in width. The endothelium is carefully removed by inserting a fine n° 1 catheter, made slightly abrasive, into the vessel lumen.
After a series of rinsings, rests and load readjustments, the maximum contraction of each segment is determined by further depolarisation with the KPSS solution.
After a new rest period during which the 1 g load is constantly readjusted, the following compounds are added to the isolated organ bath: Mepyramine (1 μM), Atropine (1 μM), Indometacine (3 μM), LNA (30 μM), Captopril (10 μM), DL-Thiorphan (1 μM) and Nifedipine (0.1 μM).
After 20 minutes, the molecule to be tested or the molecule solvent is added to the isolated organ bath. The molecules are examined at 10 μM; should a molecule show a sufficient level of activity, it is examined at lower concentrations (eg: 1-0.1-0.01 μM).
After 15 minutes incubation, the vein segments are contracted through the addition of increasing concentrations of des-Arg10-Kallidin (0.1 nM to 30 000 nM) in the chamber.
The pKB=[−log KB] is obtained from the equation: KB—[A]/(concentration ratio−1) in which [A] is the concentration of antagonist and the (concentration ratio) represents the ratio between EC50 in the presence of an antagonist and EC50 in the absence of antagonist.

| Structure (SMILES) | Kb [nM] |
| --- | --- |
| COc1cc(C)c(S(=O)(=O)N(C)CCOCC(=O)N2CCC(CCN3CCCC3)CC2)c(C)c1 [Example 76, 4-methoxy-N,2,6-trimethyl-N-[2-[2-[4-[2-(1-pyrrolidinyl)ethyl]-1-piperidinyl]-2-oxoethoxy]ethyl]benzenesulphonamide, fumarate] | 10 |
| COc1cc(C)c(S(=O)(=O)N(C)CCOCC(=O)N2CCN(C3CCN(C(C)(C)C)CC3)CC2)c(C)c1 [Example 32, N-[2-[2-[4-[1-(1,1-dimethylethyl)-4-piperidinyl]-1-piperazinyl]-2-oxo-ethoxy]ethyl]-4-methoxy-N,2,6-trimethylbenzenesulphonamide, difumarate] | 0.631 |
| CCN1CCC(C2CCN(C(=O)COCCN(C)S(=O)(=O)c3c(C)cc(OC)cc3C)CC2)CC1 [Example 84, 4-methoxy-N,2,6-trimethyl-N-[2-[2-[4-(1-ethyl-4-piperidinyl)-1-piperidinyl]-2-oxoethoxy]ethyl]benzenesulphonamide, fumarate] | 0.631 |
| CCN1C2CCC1CC(N1CCN(C(=O)COCCN(C)S(=O)(=O)c3c(C)cc(OC)cc3C)CC1)C2 (stereo not drawn) [Example 46, N-[2-[2-[4-(8-ethyl-8-azabicyclo[3.2.1]oct-3-yl)-1-piperazinyl]-2-oxo-ethoxy]ethyl]-4-methoxy-N,2,6-trimethylbenzenesulphonamide, difumarate] | 2.51 |
| COc1cc(C)c(S(=O)(=O)N(C)CCOCC(=O)N2CCC(N3CCCN(C)CC3)CC2)c(C)c1 [Example 89, N-[2-[2-[4-(hexahydro-4-methyl-1H-1,4-diazepin-1-yl)-1-piperidinyl]-2-oxoethoxy]ethyl]-4-methoxy-N,2,6-trimethylbenzenesulphonamide, fumarate] | 7.94 |
| COc1cc(C)c(S(=O)(=O)N(C)CCOCC(=O)N2CCN(CCCN3CCN(C)CC3)CC2)c(C)c1 [Example 45, N-[2-[2-[4-[3-(4-methyl-1-piperazinyl)propyl]-1-piperazinyl]-2-oxo-ethoxy]ethyl]-4-methoxy-N,2,6-trimethylbenzenesulphonamide, difumarate] | 12.6 |
| COc1cc(C)c(S(=O)(=O)N(CCOCC(=O)N2CCN(CCN3CCCC3)CC2)C2CC2)c(C)c1 [Example 19, N-[2-[2-[4-[2-(1-pyrrolidinyl)ethyl]-1-piperazinyl]-2-oxo-ethoxy]ethyl]-4-methoxy-N-cyclopropyl-2,6-dimethylbenzenesulphonamide, difumarate] | 31.6 |
| CCN(CCOCC(=O)N1CCN(C2CCN(C)CC2)CC1)S(=O)(=O)c1c(C)cc(OC)cc1C [Example 21, N-[2-[2-[4-(1-methyl-4-piperidinyl)-1-piperazinyl]-2-oxo-ethoxy]ethyl]-4-methoxy-N-ethyl-2,6-dimethylbenzenesulphonamide, difumarate] | 15.8 |
| COc1cc(C)c(S(=O)(=O)N(CCOCC(=O)N2CCC(CCN3CCCC3)CC2)C2CC2)c(C)c1 [Example 79, N-cyclopropyl-4-methoxy-2,6-dimethyl-N-[2-[2-[4-[2-(1-pyrrolidinyl)ethyl]-1-piperidinyl]-2-oxoethoxy]ethyl]benzenesulphonamide, fumarate] | 7.94 |

System: not given
Assay: not given
Conditions: not given

| Structure (SMILES) | melting point [°C] |
| --- | --- |
| CCN(CC)CCC1CCN(C(=O)COCCN(C)S(=O)(=O)c2c(C)cc(OC)cc2C)CC1.O=C(O)/C=C/C(=O)O | 60 |
| COc1cc(Cl)c(S(=O)(=O)N(C)CCOCC(=O)N2CCN(CCCN(C)C)CC2)c(Cl)c1.O=C(O)/C=C/C(=O)O.O=C(O)/C=C/C(=O)O | 60 |
| COc1cc(C)c(S(=O)(=O)N(CCOCC(=O)N2CCN(CCN3CCCC3)CC2)C2CC2)c(C)c1 (as salt: fumarate) [Example 19, N-[2-[2-[4-[2-(1-pyrrolidinyl)ethyl]-1-piperazinyl]-2-oxo-ethoxy]ethyl]-4-methoxy-N-cyclopropyl-2,6-dimethylbenzenesulphonamide, difumarate] | 141 |
| COc1cc(C)c(S(=O)(=O)N(C)CCOCC(=O)N2CCC(CN3CCC3)CC2)c(C)c1.O=C(O)/C=C/C(=O)O | 75 |
| CCN(CCOCC(=O)N1CCN(C2CCN(C)CC2)CC1)S(=O)(=O)c1c(C)cc(OC)cc1C (as salt: fumarate) [Example 21, N-[2-[2-[4-(1-methyl-4-piperidinyl)-1-piperazinyl]-2-oxo-ethoxy]ethyl]-4-methoxy-N-ethyl-2,6-dimethylbenzenesulphonamide, difumarate] | 206 |
| COc1cc(C)c(S(=O)(=O)N(C)CCOCC(=O)N2CCN(CCCN3CCC3)CC2)c(C)c1.O=C(O)/C=C/C(=O)O.O=C(O)/C=C/C(=O)O | 82 |
| CCN(CCOCC(=O)N1CCN(CCCN(C)C)CC1)S(=O)(=O)c1c(C)cc(OC)cc1C.O=C(O)/C=C/C(=O)O.O=C(O)/C=C/C(=O)O | 60 |
| COc1cc(C)c(S(=O)(=O)N(C)CCOCC(=O)N2CCN(CCCN3CCN(C)CC3)CC2)c(C)c1 (as salt: fumarate) [Example 45, N-[2-[2-[4-[3-(4-methyl-1-piperazinyl)propyl]-1-piperazinyl]-2-oxo-ethoxy]ethyl]-4-methoxy-N,2,6-trimethylbenzenesulphonamide, difumarate] | 204 |
| COc1cc(C)c(S(=O)(=O)N(C)CCOCC(=O)N2CCC(CCN3CCCC3)CC2)c(C)c1 (as salt: fumarate) [Example 76, 4-methoxy-N,2,6-trimethyl-N-[2-[2-[4-[2-(1-pyrrolidinyl)ethyl]-1-piperidinyl]-2-oxoethoxy]ethyl]benzenesulphonamide, fumarate] | 55 |
| COc1cc(C)c(S(=O)(=O)N(C)CCOCC(=O)N2CCC(CCCN(C)C)CC2)c(C)c1.O=C(O)/C=C/C(=O)O | 55 |
| COc1cc(C)c(S(=O)(=O)N(C)CCOCC(=O)N2CCC(CCCN3CCC3)CC2)c(C)c1.O=C(O)/C=C/C(=O)O | 65 |
| COc1cc(C)c(S(=O)(=O)N(C)CCOCC(=O)N2CCC(C(C)(C)CN3CCC3)CC2)c(C)c1.O=C(O)/C=C/C(=O)O | 60 to 62 |
| COc1cc(C)c(S(=O)(=O)N(C)CCOCC(=O)N2CCN(C3CCN(C(C)(C)C)CC3)CC2)c(C)c1 (as salt: fumarate) [Example 32, N-[2-[2-[4-[1-(1,1-dimethylethyl)-4-piperidinyl]-1-piperazinyl]-2-oxo-ethoxy]ethyl]-4-methoxy-N,2,6-trimethylbenzenesulphonamide, difumarate] | 230 |
| COc1cc(C)c(S(=O)(=O)N(CCOCC(=O)N2CCC(CCN3CCCC3)CC2)C2CC2)c(C)c1 (as salt: fumarate) [Example 79, N-cyclopropyl-4-methoxy-2,6-dimethyl-N-[2-[2-[4-[2-(1-pyrrolidinyl)ethyl]-1-piperidinyl]-2-oxoethoxy]ethyl]benzenesulphonamide, fumarate] | 50 |
| COc1cc(Cl)c(S(=O)(=O)N(C)CCOCC(=O)N2CCC(CCN(C)C)CC2)c(Cl)c1.O=C(O)/C=C/C(=O)O | 70 |
| CCN1C2CCC1CC(N1CCN(C(=O)COCCN(C)S(=O)(=O)c3c(C)cc(OC)cc3C)CC1)C2 (stereo not drawn) (as salt: fumarate) [Example 46, N-[2-[2-[4-(8-ethyl-8-azabicyclo[3.2.1]oct-3-yl)-1-piperazinyl]-2-oxo-ethoxy]ethyl]-4-methoxy-N,2,6-trimethylbenzenesulphonamide, difumarate] | 132 |
